Results: patent US20220324880A1, “SMARCA INHIBITORS AND USES THEREOF” (Kymara Therapeutics, Inc., priority 2019, published 2022)

molecular target: T1, SMARCA2 (Homo sapiens, UniProt P51531); experiment: SMARCA2 HTRF assay (His-tagged SMARCA2-17, anti-6His Tb cryptate); details: read-out: SMARCA2 binding Human HTRF: Average IC50
Experimental: Sample handling: Prepared 1× Epigenetics Buffer according to manufacturer's instructions. Prepared 32 nM SMARCA2-17 (4X) with Epigenetics Buffer; Prepared 4× Tb working solution: dilute Mab Anti 6His Tb cryptate Gold in PPI-Terbium Detection buffer to 0.21 ng/l (100× dilution from stock). Prepared SMARCA2-mAb-Tb working solution by mixing equal volume of 32 nM SMARCA2 with Tb working solution. Started a half-hour timer. In a 96-well plate, prepared serial dilution of compound DMSO solutions. Placed 24 μl/well of Epigenetics Buffer to a second 96-well plate. Transferred 1 μl of the 100× compound DMSO solution to the second 96-well plate to make 4× compound working solution. Prepared 80 nM SMA-611-001H/SMA-788-001H (4×) with Epigenetics Buffer. Added 5 μl/well of SMA-611-001H into the 384-well plate. Added 5 μl/well of SMA-788-001H into the 384-well plate. Added 5 μl/well of 4× compound working solution into the 384-well plate, mix well. Added 10 µl/well of SMARCA2-mAb-Tb working solution into 384-well plate. Incubated the above mixtures at room temperature for 30 min. Data collected, processed and on EnVision. Calculated 520 nm/495 nm readouts ratio from raw data.
Target sequence in this assay (P51531 whole entry): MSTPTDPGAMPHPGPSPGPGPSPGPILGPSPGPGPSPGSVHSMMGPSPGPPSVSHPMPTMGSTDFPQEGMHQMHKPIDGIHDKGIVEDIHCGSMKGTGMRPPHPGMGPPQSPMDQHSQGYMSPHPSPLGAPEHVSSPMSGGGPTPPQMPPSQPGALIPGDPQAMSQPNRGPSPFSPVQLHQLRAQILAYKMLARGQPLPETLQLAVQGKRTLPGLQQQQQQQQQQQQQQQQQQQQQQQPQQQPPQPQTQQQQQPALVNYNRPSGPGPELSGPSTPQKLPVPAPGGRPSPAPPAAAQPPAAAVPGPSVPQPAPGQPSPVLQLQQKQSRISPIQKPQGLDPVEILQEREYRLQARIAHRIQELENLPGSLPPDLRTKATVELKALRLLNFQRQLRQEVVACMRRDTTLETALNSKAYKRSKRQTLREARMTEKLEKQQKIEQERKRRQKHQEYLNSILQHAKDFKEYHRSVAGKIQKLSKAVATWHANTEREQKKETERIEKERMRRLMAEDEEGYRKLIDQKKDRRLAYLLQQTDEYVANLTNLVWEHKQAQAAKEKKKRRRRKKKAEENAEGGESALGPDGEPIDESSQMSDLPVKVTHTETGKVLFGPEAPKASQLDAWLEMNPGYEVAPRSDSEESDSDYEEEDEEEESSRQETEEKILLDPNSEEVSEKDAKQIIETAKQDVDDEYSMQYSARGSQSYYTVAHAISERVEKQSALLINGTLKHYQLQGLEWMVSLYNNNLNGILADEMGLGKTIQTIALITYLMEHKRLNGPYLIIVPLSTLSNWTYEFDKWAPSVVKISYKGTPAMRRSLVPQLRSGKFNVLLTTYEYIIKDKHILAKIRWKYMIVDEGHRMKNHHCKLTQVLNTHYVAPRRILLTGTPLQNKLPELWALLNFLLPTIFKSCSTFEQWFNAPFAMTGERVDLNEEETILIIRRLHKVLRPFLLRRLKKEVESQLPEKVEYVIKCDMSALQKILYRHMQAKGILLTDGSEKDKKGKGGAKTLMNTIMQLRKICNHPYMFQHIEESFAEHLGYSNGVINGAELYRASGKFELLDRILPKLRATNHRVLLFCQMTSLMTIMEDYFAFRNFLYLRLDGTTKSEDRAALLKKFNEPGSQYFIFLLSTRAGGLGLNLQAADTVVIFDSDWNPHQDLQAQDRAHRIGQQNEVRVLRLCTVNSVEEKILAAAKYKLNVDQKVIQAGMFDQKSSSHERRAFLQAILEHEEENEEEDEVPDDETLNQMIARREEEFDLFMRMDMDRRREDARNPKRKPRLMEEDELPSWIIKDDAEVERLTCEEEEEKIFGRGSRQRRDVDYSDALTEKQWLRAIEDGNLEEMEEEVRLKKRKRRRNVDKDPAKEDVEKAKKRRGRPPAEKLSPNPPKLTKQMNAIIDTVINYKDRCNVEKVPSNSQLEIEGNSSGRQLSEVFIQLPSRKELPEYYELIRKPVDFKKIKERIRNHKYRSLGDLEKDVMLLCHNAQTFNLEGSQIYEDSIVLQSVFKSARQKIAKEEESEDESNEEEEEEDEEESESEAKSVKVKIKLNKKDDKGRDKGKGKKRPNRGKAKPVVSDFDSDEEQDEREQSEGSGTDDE

SMILES | IC50
Oc1ccccc1-c1cc2cc[nH]c2nn1 [I-19, 2-(7H-Pyrrolo[2,3-c]pyridazin-3-yl)phenol] | 1000 to 100000 nM
Nc1ncc2ccccc2c1C#CC1CCNCC1 [I-25, 4-(Piperidin-4-ylethynyl)isoquinolin-3-amine] | 101000 to 500000 nM

molecular target: T1, SMARCA2; experiment: SMARCA2 BromoScan bromodomain binding assay (phage-displayed bromodomain, qPCR readout); set-up: made in house; host or cells: E. coli host derived from the BL21 strain (T7 phage lysate); details: read-out: BromoScan Panel - SMARCA2: External Kd
Experimental: Bromodomain assays. T7 phage strains displaying bromodomains were grown in parallel in 24-well blocks in an E. coli host derived from the BL21 strain. E. coli were grown to log-phase and infected with T7 phage from a frozen stock (multiplicity of infection=0.4) and incubated with shaking at 32° C. until lysis (90-150 minutes). The lysates were centrifuged (5,000×g) and filtered (0.2 μm) to remove cell debris. Streptavidin-coated magnetic beads were treated with biotinylated small molecule or acetylated peptide ligands for 30 minutes at room temperature to generate affinity resins for bromodomain assays. […] Test compounds were prepared as 1000λ stocks in 100% DMSO. Kds were determined using an 11-point 3-fold compound dilution series with one DMSO control point. […] The compounds were then diluted directly into the assays such that the final concentration of DMSO was 0.09%. All reactions performed in polypropylene 384-well plates. Each was a final volume of 0.02 ml. […] The bromodomain concentration in the eluates was measured by qPCR. Compound Handling: An 11-point 3-fold serial dilution of each test compound was prepared in 100% DMSO at 1000× final test concentration. […] The compounds were then diluted directly into the assays such that the final concentration of DMSO was 0.09%. […] Binding constants (Kds) were calculated with a standard dose-response curve using the Hill equation. Curves were fitted using a non-linear least square fit with the Levenberg-Marquardt algorithm.
Target sequence in this assay (P51531 1378-1506 limits assumed): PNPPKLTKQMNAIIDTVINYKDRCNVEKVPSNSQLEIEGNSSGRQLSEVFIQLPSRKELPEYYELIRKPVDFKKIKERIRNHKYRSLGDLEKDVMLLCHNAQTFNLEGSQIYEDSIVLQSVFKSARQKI

SMILES | Kd
CC(c1ccccc1)n1cc(-c2cc(-c3cccn(C)c3=O)cnc2N)cn1 (centres unmarked) [I-1, 6′-Amino-1-methyl-5′-(1-(1-phenylethyl)-1H-pyrazol-4-yl)-[3,3′-bipyridin]-2(1H)-one] | > 1000 nM
Cn1cccc(-c2cnc(N)c(-c3cn[nH]c3)c2)c1=O [I-2, 3-[6-Amino-5-(1H-pyrazol-4-yl)-3-pyridyl]-1-methyl-pyridin-2-one] | > 1000 nM
O=c1c2c(O)cccc2ccn1Cc1cnn(Cc2ccccc2)c1 [I-3, 2-((1-benzyl-1H-pyrazol-4-yl)methyl)-8-hydroxyisoquinolin-1(2H)-one] | > 1000 nM
O=c1c2c(O)cccc2ccn1Cc1cn[nH]c1 [I-4, 2-((1H-pyrazol-4-yl)methyl)-8-hydroxyisoquinolin-1(2H)-one] | > 1000 nM
O=c1c2c(O)cccc2ccn1CC1CCN(c2ccccn2)C1 (centres unmarked) [I-5, 8-hydroxy-2-((1-(pyridin-2-yl)pyrrolidin-3-yl)methyl)isoquinolin-1(2H)-one] | > 1000 nM
CC(C)(C)OC(=O)N1CCCC1Cn1ccc2cccc(O)c2c1=O (centres unmarked) [I-6, Tert-butyl-2-((8-hydroxy-1-oxoisoquinolin-2(1H)-yl)methyl)pyrrolidine-1-carboxylate] | > 1000 nM
O=c1c2c(O)cccc2ccn1CC1CCCN1 (centres unmarked) [I-7, 8-hydroxy-2-(pyrrolidin-2-ylmethyl)isoquinolin-1(2H)-one] | > 1000 nM
CC(C)(C)OC(=O)N1CCC(Cn2ccc3cccc(O)c3c2=O)C1 (centres unmarked) [I-9, Tert-butyl 3-((8-hydroxy-1-oxoisoquinolin-2(1H)-yl)methyl)pyrrolidine-1-carboxylate] | > 1000 nM
O=c1c2c(O)cccc2ccn1CC1CCNC1 (centres unmarked) [I-10, 8-hydroxy-2-(pyrrolidin-3-ylmethyl)isoquinolin-1(2H)-one] | > 1000 nM
O=c1ncn(-c2ccccc2)c2cccc(Cl)c12 [I-11, 5-Chloro-1-phenylquinazolin-4(1H)-one] | > 1000 nM
Nc1ncc(-c2ncccn2)cc1C1CCNCC1 [I-13] | > 1000 nM
Nc1ncc(-c2ncccn2)cc1N1CCNCC1 [I-14, 3-(piperazin-1-yl)-5-(pyrimidin-2-yl)pyridin-2-amine] | > 1000 nM
Nc1ncc(-c2cccc(Cl)c2)cc1N1CCNCC1 [I-15, 5-(3-chlorophenyl)-3-(piperazin-1-yl)pyridin-2-amine] | > 1000 nM
O=C(NCC1CCN(c2ccccn2)CC1)c1ccccc1O [I-16, 2-Hydroxy-N-((1-(pyridin-2-yl)piperidin-4-yl)methyl)benzamide] | > 1000 nM
Nc1nnc(-c2cnccc2O)cc1N1CCNCC1 [I-17, 3-(6-Amino-5-(piperazin-1-yl)pyridazin-3-yl)pyridin-4-ol] | > 1000 nM
CCCCOc1ccc(N2CCN(c3cc(-c4ccccc4O)nnc3N)CC2)cc1 [I-18, 2-(6-Amino-5-(4-(4-butoxyphenyl)piperazin-1-yl)pyridazin-3-yl)phenol] | > 1000 nM
Oc1ccccc1-c1cc2cc[nH]c2nn1 [I-19, 2-(7H-Pyrrolo[2,3-c]pyridazin-3-yl)phenol] | < 100 nM

SMILES | Kd
Oc1ccccc1-c1cc2c(C3CCNCC3)c[nH]c2nn1 [I-20, 2-(5-(Piperidin-4-yl)-7H-pyrrolo[2,3-c]pyridazin-3-yl)phenol] | < 100 nM
O=C(Nc1ccc2cn[nH]c2c1)c1ccccc1O [I-21, 2-Hydroxy-N-(1H-indazol-6-yl)benzamide] | > 1000 nM
O=C(Nc1cc(C2CCNCC2)cc2[nH]ncc12)c1ccccc1O [I-22, 2-Hydroxy-N-(6-(piperidin-4-yl)-1H-indazol-4-yl)benzamide] | > 1000 nM
O=C(Nc1ccc2c(C3CCNCC3)n[nH]c2c1)c1ccccc1O [I-23, 2-Hydroxy-N-[3-(4-piperidyl)-1H-indazol-6-yl]benzamide] | > 1000 nM
c1ccc2c(c1)nnc1[nH]c(C3CCNCC3)cc12 [I-24, 2-(4-Piperidyl)-3H-pyrrolo [2,3-c]cinnoline] | 501 to 1000 nM
Nc1ncc2c(Cl)cccc2c1C#CC1CCNCC1 [I-27, 8-Chloro-4-(piperidin-4-ylethynyl)isoquinolin-3-amine] | > 1000 nM
Oc1ccccc1-c1cc(-c2ccc(CN3CCNCC3)cc2)[nH]n1 [I-28, 2-[5-[4-(piperazin-1-ylmethyl)phenyl]-1H-pyrazol-3-yl]phenol] | > 1000 nM
Oc1ccccc1-c1n[nH]c2ccccc12 [I-29, 2-(1H-indazol-3-yl)phenol] | > 1000 nM
Oc1ccccc1-c1n[nH]c2ccncc12 [I-30, 2-(1H-Pyrazolo[4,3-c]pyridin-3-yl)phenol] | > 1000 nM
Nc1nnc(-c2ccc(Cl)cc2O)cc1N1CCNCC1 [I-31, 2-(6-Amino-5-piperazin-1-yl-pyridazin-3-yl)-5-chloro-phenol] | > 1000 nM
Nc1nnc(-c2cccc(Cl)c2O)cc1N1CCNCC1 [I-32, 2-(6-Amino-5-(piperazin-1-yl)pyridazin-3-yl)-6-chlorophenol] | < 100 nM
Nc1nnc(-c2cc(Cl)ccc2O)cc1N1CCNCC1 [I-33, 2-(6-Amino-5-piperazin-1-yl-pyridazin-3-yl)-4-chloro-phenol] | 100 to 500 nM
Cc1ccc(O)c(-c2cc(N3CCNCC3)c(N)nn2)c1 [I-34, 2-(6-Amino-5-piperazin-1-yl-pyridazin-3-yl)-4-methyl-phenol] | > 1000 nM
Nc1nnc(-c2ccn[nH]2)cc1C1CCNCC1 [I-35, 4-(4-Piperidyl)-6-(1H-pyrazol-5-yl)pyridazin-3-amine] | > 1000 nM
COC(=O)C1=CC(=O)N2CCCN=C2S1 [I-37] | > 1000 nM
COc1ccc(C(NC(=O)c2cc(-c3ccccc3O)n[nH]2)C2CC2)cc1 (centres unmarked) [I-38] | > 1000 nM
